What all share (type): functional
Assay [1] deals with Candida albicans. Kind of assay: Antifungal activity against Candida albicans clinical isolate after 24 hr by NCCLS broth macrodilution method.
Assay [2] relates to Pseudomonas aeruginosa. Kind of assay: Antibacterial activity against Pseudomonas aeruginosa ATCC 27953 after 16 to 18 hr by NCCLS broth macrodilution method.
Assay [3] relates to Staphylococcus aureus. Kind of assay: Antibacterial activity against Staphylococcus aureus ATCC 29213 after 16 to 18 hr by NCCLS broth macrodilution method.
The test system of assay [4] is Escherichia coli. Kind of assay: Antibacterial activity against Escherichia coli ATCC 25922 after 16 to 18 hr by NCCLS broth macrodilution method.

In brackets after ≈: the same amount, converted by molar mass.

In the case of `CC1CCCC(C)N1CC#CCn1nc(-c2ccccc2)n(-c2ccccc2)c1=O` (stereo unspecified), the MIC amounted to 25 µg/mL (≈ 62.4 µM) in assay [1], 50 µg/mL (≈ 125 µM) in assay [2], 12.5 µg/mL (≈ 31.2 µM) in assay [3] and 12.5 µg/mL (≈ 31.2 µM) in assay [4].
On to `O=c1n(CC#CCN2CCCCCC2)nc(-c2ccccc2)n1-c1ccccc1`, for which the MIC worked out at 12.5 µg/mL (≈ 32.3 µM) in assay [1], 50 µg/mL (≈ 129 µM) in assay [2], 6.25 µg/mL (≈ 16.2 µM) in assay [3] and 12.5 µg/mL (≈ 32.3 µM) in assay [4].
For the compound `O=c1n(CC#CCN2CCCCCCC2)nc(-c2ccccc2)n1-c1ccccc1`, the MIC is 12.5 µg/mL (≈ 31.2 µM) in assay [1], 25 µg/mL (≈ 62.4 µM) in assay [2], 6.25 µg/mL (≈ 15.6 µM) in assay [3] and 6.25 µg/mL (≈ 15.6 µM) in assay [4].
For `CC1CCCCN1CC#CCn1nc(-c2ccccc2)n(-c2ccccc2)c1=O` (stereo unspecified), the MIC amounted to 25 µg/mL (≈ 64.7 µM) in assay [1], 100 µg/mL (≈ 259 µM) in assay [2], 12.5 µg/mL (≈ 32.3 µM) in assay [3] and 50 µg/mL (≈ 129 µM) in assay [4].
In the case of `CC1CCCN(CC#CCn2nc(-c3ccccc3)n(-c3ccccc3)c2=O)C1` (stereo unspecified), the MIC amounted to 12.5 µg/mL (≈ 32.3 µM) in assay [1], 50 µg/mL (≈ 129 µM) in assay [2], 12.5 µg/mL (≈ 32.3 µM) in assay [3] and 12.5 µg/mL (≈ 32.3 µM) in assay [4].
Take `O=c1n(CC#CCN2CCCC2)nc(-c2ccccc2)n1-c1ccccc1`: the MIC is 25 µg/mL (≈ 69.7 µM) in assay [1], 100 µg/mL (≈ 279 µM) in assay [2], 25 µg/mL (≈ 69.7 µM) in assay [3] and 50 µg/mL (≈ 139 µM) in assay [4].
On to `CC1CCCC(C)N1CC#CCn1nc(-c2ccccc2)n(-c2cccc3ccccc23)c1=O` (stereo unspecified), for which the MIC came to 50 µg/mL (≈ 111 µM) in assay [1], 100 µg/mL (≈ 222 µM) in assay [2], 50 µg/mL (≈ 111 µM) in assay [3] and 50 µg/mL (≈ 111 µM) in assay [4].
Take `CC1CCCN(CC#CCn2nc(-c3ccccc3)n(-c3cccc4ccccc34)c2=O)C1` (stereo unspecified): the MIC is 50 µg/mL (≈ 115 µM) in assay [1], 100 µg/mL (≈ 229 µM) in assay [2], 25 µg/mL (≈ 57.3 µM) in assay [3] and 50 µg/mL (≈ 115 µM) in assay [4].
In the case of `O=c1n(CC#CCN2CCCCCC2)nc(-c2ccccc2)n1-c1cccc2ccccc12`, the minimum inhibitory concentration (MIC) is 25 µg/mL (≈ 57.3 µM) in assay [1], 50 µg/mL (≈ 115 µM) in assay [2], 25 µg/mL (≈ 57.3 µM) in assay [3] and 50 µg/mL (≈ 115 µM) in assay [4].
For `O=c1n(CC#CCN2CCCCCCC2)nc(-c2ccccc2)n1-c1cccc2ccccc12`, the MIC was determined as 12 µg/mL (≈ 26.6 µM) in assay [1], 50 µg/mL (≈ 111 µM) in assay [2], 50 µg/mL (≈ 111 µM) in assay [3] and 25 µg/mL (≈ 55.5 µM) in assay [4].
In the case of `CC1CCCC(C)N1CC#CCn1nc(-c2ccc(Cl)cc2)n(-c2ccccc2)c1=O` (stereo unspecified), the MIC in assay [1] is 25 µg/mL (≈ 57.5 µM); in assay [2], 50 µg/mL (≈ 115 µM); in assay [3] it was 25 µg/mL (≈ 57.5 µM); in assay [4] it was 25 µg/mL (≈ 57.5 µM).
As to `CC1CCCCN1CC#CCn1nc(-c2ccc(Cl)cc2)n(-c2ccccc2)c1=O` (stereo unspecified), the MIC was 50 µg/mL (≈ 119 µM) in assay [1], 100 µg/mL (≈ 238 µM) in assay [2], 12.5 µg/mL (≈ 29.7 µM) in assay [3] and 50 µg/mL (≈ 119 µM) in assay [4].
Consider `O=c1n(CC#CCN2CCCCC2)nc(-c2ccc(Cl)cc2)n1-c1ccccc1`, for which the MIC in assay [1] came out at 25 µg/mL (≈ 61.4 µM); in assay [2] it was 100 µg/mL (≈ 246 µM); in assay [3] it was 12.5 µg/mL (≈ 30.7 µM); in assay [4], 50 µg/mL (≈ 123 µM).
On to `CC(=O)N1CCN(c2ccc(OCC3COC(Cn4ccnc4)(c4ccc(Cl)cc4Cl)O3)cc2)CC1` (stereo unspecified) [KETOCONAZOLE], for which the MIC in assay [1] is 12.5 µg/mL (≈ 23.5 µM).
On to `CC1COc2c(N3CCN(C)CC3)c(F)cc3c(=O)c(C(=O)O)cn1c23` (stereo unspecified) [OFLOXACIN], for which the MIC in assay [2] was 25 µg/mL (≈ 69.2 µM); in assay [3], 12.5 µg/mL (≈ 34.6 µM); in assay [4], 12.5 µg/mL (≈ 34.6 µM).
